Results on two molecules are retold here after US20250186416A1, “SMOKING CESSATION COMPOUNDS HAVING REDUCED NITROSAMINES AND ASSOCIATED METHODS” (Achieve Life Sciences, Inc., priority 2023, published 2025).

The conditions of data set [1]: cited from earlier work.

Structures are written as SMILES. Like-named read-outs stand apart in the source and are kept apart here.

As to `O=C1O[C@H]([C@@H](O)CO)C(O)=C1O` [ascorbic acid], the “reported pH of ascorbic acid in water” value in data set [1] (5 mg/ml) is recorded as 3; in data set [1] (50 mg/ml), 2.

Take `O=c1cccc2n1C[C@@H]1CNC[C@H]2C1` [drug substance (API), cytisine]: the “NNC equivalent in the standard tablet formulation” value (equivalent of 152 ppb in API) is recorded as “approximately 0.46 ng/tablet”. Further, the “highest level of NNC observed in representative batches of drug substance (API)” value (storage about 10 months to about 8 years after manufacture) amounted to 152 ppb.
